Measurements reported in ChEMBL document CHEMBL5247651, “Oxadiazolopyridine Derivatives as Efficacious Mitochondrial Uncouplers in the Prevention of Diet-Induced Obesity” (J Med Chem, 2023).
Calls of active or inactive are those of the source. The calls are words filed in the database; no cut-off is given here.

How the values were obtained:
[1] = (§1) Induction of mitochondrial uncoupling activity in rat L6 cells assessed as increase in oxygen consumption rate at 0.37 to 200 uM measured after 90 mins by agilent Seahorse XF analyzer relative to BAM15; type: functional; conditions: dose 0.37-200 µM, 1.5 h
[2] = Induction of mitochondrial uncoupling activity in rat L6 cells assessed as increase in oxygen consumption rate measured after 90 mins by agilent Seahorse XF analyzer; type: functional, cell-based
[3] = Cmax in C57BL/6 mouse at 10 mg/kg, po administered via gavage measured upto 24 hrs by LC/MS-MS analysis; type: ADME, organism-based; parameters: dose 10 mg/kg, time < 24 hrs, route po; conditions: in vivo
[4] = Half life in C57BL/6 mouse at 10 mg/kg, po administered via gavage measured upto 24 hrs by LC/MS-MS analysis; type: ADME, organism-based; conditions: in vivo
L6 [5] = assay: as §1; type: functional; conditions: dose 0.37-200 µM
L6 [6] = conditions: Rattus norvegicus, time 90.0 min
Mus musculus [7] = assay: Anti-obesity activity against HFD-induced C57BL/6 mouse model assessed as reduction in body fat mass at 5 mg/kg, po via gavage administered 3 times a week measured after 6 weeks; type: functional; parameters: scale not given: the % may be the effect or the level left
Mus musculus [8] = assay: Anti-obesity activity against HFD-induced C57BL/6J mouse model assessed as reduction in diet-induced weight gain at 125 mg/kg/day measured after 8 weeks; type: functional; parameters: scale not given: the % may be the effect or the level left

SMILES | Activity [1] [%] | pEC50 [2] | further results
Oc1nc2nonc2cc1Nc1c(F)c(F)c(C(F)(F)F)c(F)c1F | 69 | 5.9 | EC50 [2]: 2 µM; Cmax [3]: 21 µM; t1/2 [4]: 15.6 h
Oc1nc2nonc2cc1Nc1cccc(C(F)(F)F)c1 | 14 | 5.8 | –
Oc1nc2nonc2cc1Nc1ccc(C(F)(F)F)cc1 | 28 | – | EC50 [2]: 6.9 µM
CC(C)(C)c1ccccc1Nc1cc2nonc2nc1O | – | – | Activity (L6 [5]): inactive; pEC50 (L6 [6]): inactive
Oc1nc2nonc2cc1Nc1cccc(OC(F)(F)F)c1 | 17 | 5.3 | –
Oc1nc2nonc2cc1Nc1ccc(S(F)(F)(F)(F)F)cc1 | 4 | 6.2 | –
Oc1nc2nonc2cc1Nc1ccc(F)c(F)c1 | 17 | 4.2 | –
Oc1nc2nonc2cc1Nc1ccccc1F | – | – | pEC50 (L6 [6]): inactive
O=C(Nc1cc(Cl)cc(Cl)c1)Nc1cc(Cl)cc(Cl)c1 | – | – | Activity (Mus musculus [7]): 35%
Oc1nc2nonc2cc1Nc1ccc(OC(F)(F)F)cc1C(F)(F)F | 57 | 5.5 | EC50 [2]: 3.1 µM; Cmax [3]: 10 µM; t1/2 [4]: > 24 h
Oc1nc2nonc2cc1Nc1ccccc1C(F)(F)F | 20 | 4.8 | –
Oc1nc2nonc2cc1Nc1ccc(C(F)(F)F)cc1F | 9 | – | pEC50 (L6 [6]): inactive
Oc1nc2nonc2cc1Nc1cccc(S(F)(F)(F)(F)F)c1 | 20 | 5.9 | –
Oc1nc2nonc2cc1Nc1cc(C(F)(F)F)cc(C(F)(F)F)c1 | 35 | 5.8 | –
Oc1nc2nonc2cc1Nc1cc(F)ccc1OC(F)(F)F | 13 | 5.9 | –
Oc1nc2nonc2cc1Nc1cc(F)c(F)c(F)c1 | 21 | 5.6 | –
CS(=O)(=O)c1ccc(Nc2cc3nonc3nc2O)cc1 | – | – | Activity (L6 [5]): inactive; pEC50 (L6 [6]): inactive
Cc1ccc(Nc2cc3nonc3nc2O)cc1 | – | – | Activity (L6 [5]): inactive; pEC50 (L6 [6]): inactive
Oc1nc2nonc2cc1Nc1ccc(C(F)(F)F)c(C(F)(F)F)c1 | 10 | 6 | –

SMILES | Activity [1] [%] | pEC50 [2] | further results
Oc1nc2nonc2cc1Nc1cc(F)cc(F)c1 | 24 | 4.3 | –
Oc1nc2nonc2cc1Nc1ccc(OC(F)(F)F)cc1F | 11 | 5.8 | –
Oc1nc2nonc2cc1Nc1ccc(F)cc1C(F)(F)F | 29 | 5.3 | –
Oc1nc2nonc2cc1Nc1ccc(F)cc1F | – | – | Activity (L6 [5]): inactive; pEC50 (L6 [6]): inactive
Oc1nc2nonc2cc1Nc1ccc(OC(F)(F)F)cc1 | 14 | 5.8 | –
Oc1nc2nonc2cc1Nc1ccc(C(F)(F)F)nc1 | 26 | 4.7 | EC50 [2]: 20 µM
Oc1nc2nonc2cc1Nc1cccc(C(F)(F)F)c1C(F)(F)F | 11 | 5.7 | –
Oc1nc2nonc2cc1Nc1ccc(F)cc1OC(F)(F)F | 14 | 5.7 | –
O=S(=O)(c1ccc(Nc2cc3nonc3nc2O)cc1)C(F)(F)F | 25 | 6 | –
Oc1nc2nonc2cc1Nc1cc(F)ccc1C(F)(F)F | 53 | 5.1 | EC50 [2]: 7.8 µM
Oc1nc2nonc2cc1Nc1ccc(C(F)(F)F)c(F)c1 | 10 | 6.1 | –
Oc1nc2nonc2cc1Nc1c(F)cc(F)cc1F | 14 | 4.4 | –
Oc1nc2nonc2cc1Nc1ccc(OC(F)(F)F)c(F)c1 | 25 | 5.6 | –
O=C(Nc1ccc([N+](=O)[O-])cc1Cl)c1cc(Cl)ccc1O [NICLOSAMIDE] | – | – | Activity (Mus musculus [8]): 25%
Oc1nc2nonc2cc1Nc1cc(OC(F)(F)F)ccc1F | 59 | 5.5 | EC50 [2]: 3.4 µM
Oc1nc2nonc2cc1Nc1ccccc1OC(F)(F)F | – | – | Activity (L6 [5]): inactive; pEC50 (L6 [6]): inactive
Oc1nc2nonc2cc1Nc1cccc(F)c1 | 3 | – | pEC50 (L6 [6]): inactive
Oc1nc2nonc2cc1Nc1ccc(F)c(F)c1F | 2 | – | pEC50 (L6 [6]): inactive
Oc1nc2nonc2cc1Nc1cc(F)ccc1F | 27 | 4.7 | –

SMILES | Activity [1] [%] | pEC50 [2] | further results
Oc1nc2nonc2cc1Nc1cccc(OC(F)(F)F)c1F | 30 | 5.9 | –
Oc1nc2nonc2cc1Nc1ccc(F)cc1 | 6 | – | pEC50 (L6 [6]): inactive
Oc1nc2nonc2cc1Nc1cc(OC(F)(F)F)c(F)cc1F | 58 | 5.7 | –
Oc1nc2nonc2cc1Nc1cc(F)cc(OC(F)(F)F)c1 | 6 | – | pEC50 (L6 [6]): inactive
O=S(=O)(c1cccc(Nc2cc3nonc3nc2O)c1)C(F)(F)F | 13 | > 4 | –
Oc1nc2nonc2cc1Nc1ccc(C(F)(F)F)cc1C(F)(F)F | 34 | 6 | –
Oc1nc2nonc2cc1Nc1cc(F)cc(C(F)(F)F)c1 | 11 | 6.1 | –
Oc1nc2nonc2cc1Nc1cc(C(F)(F)F)ccc1C(F)(F)F | 72 | 5.7 | EC50 [2]: 1.5 µM; Cmax [3]: 29 µM; t1/2 [4]: 2.2 h
Oc1nc2nonc2cc1Nc1cccc(C(F)(F)F)c1F | 3 | – | pEC50 (L6 [6]): inactive
Oc1nc2nonc2cc1Nc1cccc(F)c1C(F)(F)F | 26 | 5.3 | –
Oc1nc2nonc2cc1Nc1ccc(OC(F)(F)C(F)F)cc1 | – | – | Activity (L6 [5]): inactive; pEC50 (L6 [6]): inactive
Oc1nc2nonc2cc1Nc1c(F)cccc1F | 6 | – | pEC50 (L6 [6]): inactive
Oc1nc2nonc2cc1Nc1cc(C(F)(F)F)c(F)cc1F | 51 | 5.5 | EC50 [2]: 1.4 µM; Cmax [3]: 25 µM; t1/2 [4]: 1.3 h
Oc1nc2nonc2cc1Nc1c(F)cccc1C(F)(F)F | 10 | 4.3 | –
Oc1nc2nonc2cc1Nc1cccc(F)c1F | 3 | – | pEC50 (L6 [6]): inactive
Oc1nc2nonc2cc1Nc1cc(C(F)(F)F)ccc1F | 54 | 5.4 | EC50 [2]: 1.5 µM; Cmax [3]: 46 µM; t1/2 [4]: 1 h
Oc1nc2nonc2cc1Nc1cc(F)c(C(F)(F)F)c(F)c1 | 33 | 5.9 | –
Oc1nc2nonc2cc1Nc1cc(F)c(C(F)(F)F)cc1F | 26 | 6.1 | –
COc1ccc(Nc2cc3nonc3nc2O)cc1 | – | – | Activity (L6 [5]): inactive; pEC50 (L6 [6]): inactive
